These results are taken from patent publication US6271416A, “Quinolinone derivative, method for preparing the same, and anti-allergic agent” (Dainippon Ink and Chemicals, Inc., priority 1997, dated 2001).

The term inhibition in vivo denotes the share of the control response that was lost under treatment. Lower therefore signals a weak effect.

In this test the test system is homologous passive cutaneous anaphylaxis (PCA) reaction. In words: Effect on homologous passive cutaneous anaphylaxis (PCA) reaction in rats. Type of test: in vivo, rat (male wistar). The following applies: Rattus norvegicus, 1 hour before induction; for inhibition in vivo at 100 mg/kg: test compounds, 100 mg/kg oral. On the procedure:
Effect on homologous passive cutaneous anaphylaxis (PCA) reaction in rats
This experimental animal model is caused by immediate type allergic reaction, namely, antigen-antibody reaction. In the following, the method of this pharmacological test will be explained.
Method: Male wistar rats (9 weeks old) were intradermally administered 0.05 ml of anti-serum against dinitrophenylated ascaris (DNP-As) into two sites on the shaved dorsal skin. 48 hours later, quinolinone derivatives (test compounds) suspended in 0.5% methylcellulose (MC) were given orally at a dose of 100 mg/kg to the animals. 1 hour after administration of Test compounds, the animals were induced anaphylaxis by injection of saline (1 ml) dissolving 1 mg of trinitrophenylated ascaris (TNP-As) and 5 mg of Evans Blue into the tail vein of the animals. 30 minutes after induction of anaphylaxis, animals were anesthetized by ether and killed by bleeding, and were flayed dorsal skin. The leakage of dye was assessed by measuring the diameter (mean of shortest and longest diameter) of the blue spot on the inside surface of dorsal skin. As vehicle control group, only 0.5% MC solution was administered orally, and as positive control group, Tranilast suspended in 0.5% MC were administered orally at a dose of 200 mg/kg to the animals with the same method as the test compounds groups. Each experimental group consisted of 5 rats. In the conditions of this experinent, it was considered that the compound, which inhibited PCA reaction by over forty (40) percent against that in vehicle control group, was evidently effective for immediate type allergy.
Inhibition (%)=(A-B)/A×100 (Equation 1)
A: leakage of dye in vehicle control group
B: leakage of dye in test compound group or positive control group

Each structure is given as a SMILES string.

In turn, `CCOc1c(O)c2c(N)cccc2n(C)c1=O` [Compound 23, 5-amino-3-ethoxy-4-hydroxy-1-methyl-2(1H)-quinolinone] yielded an inhibition in vivo at 100 mg/kg of 40%.

Regarding `Cn1c(=O)c(Oc2ccccc2)c(O)c2cc(N)ccc21` [Compound 24, 6-amino-3-phenoxy-4-hydroxy-1-methyl-2(1H)-quinolinone], 100 mg/kg produced 42% inhibition in vivo. The same measure, in the same setting: as for `CC(=O)Nc1ccc2c(c1)c(O)c(Oc1ccccc1)c(=O)n2C` [Compound 26, 6-acetylamino-3-phenoxy-4-hydroxy-1-methyl-2(1H)-quinolinone], the figure is 39%. As for `CCCCCCCCn1c(=O)c(Oc2ccccc2)c(O)c2cc(-c3ccccc3)ccc21` [Compound 34, 6-phenyl-3-phenoxy-4-hydroxy-1-octyl-2(1H)-quinolinone], the inhibition in vivo at 100 mg/kg was 37%.

In the case of `COc1c(O)c2c(O)cc(O)cc2n(C)c1=O` [Compound 36, 5,7-dihydroxy-3-methoxy-4-hydroxy-1-methyl-2(1H)-quinolinone], the inhibition in vivo at 100 mg/kg was determined as 45%. Same read-out and setting: to `CCCCOc1c(O)c2c(C(=O)OCC)cccc2n(C)c1=O` [Compound 38, 5-ethoxycarbonyl-3-butoxy-4-hydroxy-1-methyl-2(1H)-quinolinone] belongs 45%; to `CCOc1c(O)c2c(N)cccc2n(C/C=C(\C)CCC=C(C)C)c1=O` [Compound 44, 5-amino-3-ethoxy-4-hydroxy-1-geranyl-2(1H)-quinolinone], 42%. On the same count and under the same terms, to `CC(C)=CCC/C(C)=C/COc1c(O)c2cccc(N)c2n(C)c1=O` [Compound 45, 8-amino-3-geranyloxy-4-hydroxy-1-methyl-2(1H)-quinolinone] belongs 46%.

`CCCCCCCCCCNc1ccc2c(c1)c(O)c(OC)c(=O)n2C` [Compound 49, 6-decylamino-3-methoxy-4-hydroxy-1-methyl-2(1H)-quinolinone] came in with an inhibition in vivo at 100 mg/kg of 50%. In the case of `COc1c(O)c2cc(NC/C=C(\C)CCC=C(C)C)ccc2n(C)c1=O` [Compound 52, 6-geranylamino-3-methoxy-4-hydroxy-1-methyl-2(1H)-quinolinone], the inhibition in vivo at 100 mg/kg came to 49%.

`CCCCNc1cccc2c(O)c(OC/C=C(\C)CCC=C(C)C)c(=O)n(C)c12` [Compound 53, 8-butylamino-3-geranyloxy-4-hydroxy-1-methyl-2(1H)-quinolinone] showed an inhibition in vivo at 100 mg/kg of 45%. For the compound `CCCCCCCCCCOc1ccc2c(c1)c(O)c(OC)c(=O)n2C` [Compound 54, 6-decyloxy-3-methoxy-4-hydroxy-1-methyl-2(1H)-quinolinone], the inhibition in vivo at 100 mg/kg was 50%. The same measure, in the same setting: to `COc1c(O)c2cc(C/C=C(\C)CCC=C(C)C)ccc2n(C)c1=O` [Compound 61, 6-geranyl-3-methoxy-4-hydroxy-1-methyl-2(1H)-quinolinone] belongs 42%.

`CCCCCCCCCCOC(=O)c1cccc2c1c(O)c(OCCCC)c(=O)n2C` [Compound 68, 5-decyloxycarbonyl-3-butoxy-4-hydroxy-1-methyl-2(1H)-quinolinone] had an inhibition in vivo at 100 mg/kg of 49%. In turn, `CCCCCCCCOc1c(O)c2ccc(NC(C)=O)cc2n(C)c1=O` [Compound 76, 7-acetylamino-3-octyloxy-4-hydroxy-1-methyl-2(1H)-quinolinone] came in with an inhibition in vivo at 100 mg/kg of 51%. The same measure, in the same setting: as for `CCCCCCCCOc1c(O)c2c(NC(=O)/C=C/c3cc(OC)c(O)c(OC)c3)cccc2n(C)c1=O` [Compound 77, 5-[(3,5-dimethoxy-4-hydroxycinnamoyl)amino]-3-octyloxy-4-hydroxy-1-methyl-2(1H)-quinolinone], the figure is 55%. On the same count and under the same terms, to `CCCCCCCCOc1c(O)c2cc(NC(=O)/C=C/c3cc(OC)c(O)c(OC)c3)ccc2n(C)c1=O` [Compound 78, 6-[(3,5-dimethoxy-4-hydroxycinnamoyl)amino]-3-octyloxy-4-hydroxy-1-methyl-2(1H)-quinolinone] belongs 50%; to `CCCCCCCCOc1c(O)c2cccc(NC(=O)/C=C/c3cc(OC)c(O)c(OC)c3)c2n(C)c1=O` [Compound 79, 8-[(3,5-dimethoxy-4-hydroxycinnamoyl)amino]-3-octyloxy-4-hydroxy-1-methyl-2(1H)-quinolinone], 49%. Still for that read-out and setting: to `CCCCOc1c(O)c2cc(C(=O)OCC)ccc2n(C)c1=O` [Compound 80, 6-ethoxycarbonyl-3-butoxy-4-hydroxy-1-methyl-2(1H)-quinolinone] belongs 41%; to `CCCCOc1c(O)c2cccc(C(=O)Oc3ccccc3)c2n(C)c1=O` [Compound 83, 8-phenoxycarbonyl-3-butoxy-4-hydroxy-1-methyl-2(1H)-quinolinone], 42%. On to `CCCCCCCCOc1cccc2c1c(O)c(OC)c(=O)n2C` [Compound 84, 5-octyloxy-3-methoxy-4-hydroxy-1-methyl-2(1H)-quinolinone], for which the inhibition in vivo at 100 mg/kg is 49%.

As for `CCCCCCOc1c(O)c2cccc(OCCCCCC)c2n(C)c1=O` [Compound 85, 3,8-dihexyloxy-4-hydroxy-1-methyl-2(1H)-quinolinone], the inhibition in vivo at 100 mg/kg was 50%. In turn, `CCCCCCCCOc1c(O)c2cccc(NC)c2n(C)c1=O` [Compound 86, 8-methylamino-3-octyloxy-4-hydroxy-1-methyl-2(1H)-quinolinone] had an inhibition in vivo at 100 mg/kg of 53%. As for `COc1ccc(/C=C/C(=O)Nc2ccccc2C(=O)O)cc1OC` [Tranilast, reference compound], at 200 mg/kg the inhibition in vivo (positive control, 200 mg/kg oral) was 52%.
